According to patent US20080033029A1, “Treating Digestive Tract Conditions” (MAYO FOUNDATION FOR MEDICAL EDUCATION AND RESEARCH, priority 2004, published 2008):

Assays:
[1] = test system: ICC (interstitial cells of Cajal); 5HT2B receptor; assay: ICC culture: effect of 5HT2B receptor antagonist on the 5HT-induced increase in ICC number
Excerpt: (§1) Blinded parallel cultures were established (n=2, 6 day old Balb/C mice yielding 6 coverslips). […] ICC were identified using an antibody to c-kit and counted. Mast cells, which were identified by their characteristic size and round shape, were not included in the analysis.

[2] = test system: ICC (interstitial cells of Cajal); assay: Organotypic culture of adult mouse small intestine explants: ICC number; format: cell-based; settings: 5HT 1 μM twice daily; explants from 6 month old mice; fixed at day 8; c-Kit staining, confocal 3D
Method: Briefly, one cm segments of mouse small intestine were cut, pinned flat mucosa side up, stripped of mucosa and submucosa layers, and placed into fresh, sterile-filtered Kreb's solution with 3 mM antibiotic. Krebs was removed, and DMEM (Dulbecco's Modified Eagle's Media) with 10% FBS (Fetal Bovine Serum) and 1% antibiotic/antimycotic was added to the culture. […] In the control explant, medium was added without 5HT. The tissue was fixed at day 8 and stained using an antibody to c-Kit. […]

[3] = test system: ICC (interstitial cells of Cajal); assay: ICC culture: number of ICC with or without 5HT; format: cell-based, mouse; settings: 5HT 1 μM added every 12 hours for 24 hours; ICC from 6 day old Balb/C mice; c-kit antibody; untreated 8±0.5; P<0.0004; FIG. 1
Excerpt: as §1

In the case of `Cc1cc(NC(=O)Nc2ccc3c(ccn3C)c2)sn1` [SB204741], the “number of ICC per HPF” value [1] is reported as 9±0.2 ICC per HPF.

For `NCCc1c[nH]c2ccc(O)cc12` [5HT, Serotonin], the “number of ICC in explant versus control explant” value [2] was “greater number of ICC” and the “number of ICC per HPF” value [3] was 14±0.4 ICC per HPF.
